In brackets after ≈: the same amount, converted by molar mass. Entries after “also recorded” stand apart in the source; their conditions may differ. Read-outs that look alike come from different tables or passages of the source.
Columns and labels:
[1] = test system: erythrocyte (heat-induced hemolysis); test: erythrocyte membrane stabilization assay (heat-induced erythrocyte hemolysis); type: cell-based; conditions: Erythrocyte; for inhibition at 250 µM: 2.5 × 10^-4 M
Protocol: The published procedure (Proc. Soc. Exp. Biol. Med. 1967; 125; 837-842 Brow et al) for in vitro assay for antiinflammatory agents based on stabilization of erythrocytes was used. All compounds were prepared for administration by dissolving in physiologic saline or suspending in 2% ethanol in saline and the pH adjusted to 7.4 The concentrations tested in one series are given in Table 8. Aspirin (ASA) and phenylbutazone were used as positive controls for comparison of activity. Tests using this procedure were successfully and repeatedly using either 40% or 20% RBC suspensions.

[2] = test system: Staphylococcus aureus; test: MIC, two-fold (broth) serial dilution, S. aureus; type: cell-based; conditions: Staphylococcus aureus, read-out: MIC
Protocol: (§1) Both qualitative and quantitative screens were performed. Qualitative screening was accomplished using the agar well diffusion assay technque while quantitative screening was accomplished by the two-fold (broth) serial dilution method to determine the minimum inhibitory concentration (MIC). Innoculation was accomplished with one loop-full of a 1:10 dilution of the 24-hour-old broth culture, (fungal cultures and M.smegmatis more often required 48 to 72 hours of incubation) of the test organisms in sterile water. Streptomycin sulfate was used as a positive control for antibacterial activity while amphitericin B was used as an antifungal positive control. Organisms utilized in the screens included gram-positive, gram-negative, and acid-fast bacteria as well as different types of fungi. […] An intermediate type activity is seen where R is hydrogen. However, where R is lengthened up to C15 a decrease in activity was noted. Total saturation of the two double bonds in the compounds having a methyl side chain lead, in most cases, to an increase in both antifungal and antibacterial activity.

[3] = test system: Trichophyton mentagrophytes; test: MIC, two-fold (broth) serial dilution, T. mentagrophytes; type: cell-based; conditions: Trichophyton mentagrophytes, read-out: MIC
Protocol: as §1

[4] = test system: Mycobacterium smegmatis; test: MIC, two-fold (broth) serial dilution, M. smegmatis; type: cell-based; conditions: Mycolicibacterium smegmatis, read-out: MIC
Protocol: as §1

[5] = test system: Bacillus subtilis; test: MIC, two-fold (broth) serial dilution, B. subtilis; type: cell-based; conditions: Bacillus subtilis, read-out: MIC
Protocol: as §1

[6] = deaths and adverse effects observed in the rat paw edema test; type: in vivo
Protocol: (§2) In the Rat Paw Edema Test, the rats utilized were divided into test groups of six to eight animals, weighed and marked so that individual rats could be identified; one hour before testing all rats were given a 700 mg/kg intraperitoneal injection of ethyl urethane in distilled water to render them tractable during testing. A circle was drawn, with a felt-tipped marker, around the hind leg of each rat just above the ankle, and each rat was dosed with a test or control compound by intraperitoneal injection. Negative control groups received the vehicle; while positive control groups received a dose of phenylbutazone (PBZ) as shown in Table II. Test compounds were given at doses of 60, 120, 240 and 480 mg/kg. The positive controls were given at 120 mg/kg and 60 mg/kg. Phenylbutazone was prepared for injection by suspending it in normal saline using Tween 60. The rats were then held in group cages for 30 minutes. The volume of the left hind paw was measured using a mercury displacement pleysmograph. The paw is dipped into the mercury until the mercury touches the line above the ankle. Mercury is then withdrawn until the mercury returns to its original level. The amount of mercury removed is measured in milliliters (ml). The mercury can be measured accurately to 0.01 ml. This left hind paw was then injected with 0.1 ml of a 5% w/v solution of viscous carageenan in normal saline. The injection was given between the metatarsal bones using a 27 gauge needle, and the rats then held in group cages for 3 hours. The volume of the left hind paws was measured again in the pleysmograph. The results were computed in the following manner:
The eighth rat died within 24 hours of injection.

[7] = test system: Saccharomyces cerevisiae; test: MIC, two-fold (broth) serial dilution, S. cerevisiae; type: cell-based; conditions: Saccharomyces cerevisiae, read-out: MIC
Protocol: as §1

[8] = test system: carrageenan-induced rat paw edema; test: carrageenan-induced rat paw edema test, intraperitoneal dosing; type: in vivo; design: key to mean difference in volume (MDV): post-injection minus pre-injection mean paw volume
Protocol: Two methods were used to assess the antiinflammatory activity of the compounds of the invention: the carrageenan-induced rat paw edema test and, the erythrocyte membrane stabilization assay.
as §2
(§3) a. A mean is taken for both the pre-injection and post-injection paw volume of each test group.
(§4) b. The mean difference in volume (MDV) for each test group is computed by subtracting the pre-injection means from the post-injection mean.
(§5) c. The percent of control is computed for each test [formula] The percent of control is used to compare the efficacy of the various drug treatments.
(§6) d. The percent increase in paw volume is calculated for each group as: [formula] The percent increase is used to compare the amount of edma observed in one experiment to the amount of edma observed in other experiments.
The data from the rat paw test were further analyzed using a one-way analysis of varience (ANOVA) and Duncan's New Multiple Range Test. The pre-injection score of each animal was subtracted from his post-injection score and an analysis of the different scores were conducted.
The procedure described above was followed. […] The vehicle control used was Tween 60, Arlacel and distilled water prepared without CBC(II).

[9] = test system: carrageenan-induced rat paw edema; test: carrageenan-induced rat paw edema test, oral gavage; type: in vivo; design: key to mean difference in volume (MDV): ml; post-injection minus pre-injection mean paw volume
Protocol: as §2, with “A circle was drawn, with a felt-tipped marker, around the hind leg of each rat just above the ankle, and each rat was dosed with a test or control compound by intraperitoneal injection.” left out
as §3, §4, §5, §6
[…] The test was conducted twice, once with nonfasted rats and once with rats that had been fasted during the 24 hour period prior to dosing. The 60 mg/kg phenylbutazone control group was not used in the test with fasted animals. Tween 60 in normal saline was the vehicle control for the non-fasted rats and normal saline was the vehicle control for the fasted rats.

[10] = Table 8, 1 × 10^-4 M, read-out: inhibition of heat-induced erythrocyte hemolysis
[11] = Table 4, 60 mg/kg i.p., fasted rats
[12] = Table 4, 120 mg/kg i.p., fasted rats
[13] = Table 6, 60 mg/kg oral, non-fasted rats
[14] = Table 6, 120 mg/kg oral, non-fasted rats
[15] = Table 7, 120 mg/kg oral, fasted rats, doses approximate

## CC(C)=CCCC1(C)C=Cc2c(O)cc(C)cc2O1 (centres unmarked) [CBC (II), 2 methyl-2(4'-methyl-pent-3'-enyl)-5-hydroxy-7-metylchromene]
[1]; [10]
  inhibition at 100 µM: 86%
[2]; 24 h
  MIC: 3.12 µg/mL (≈ 12.1 µM)
[2]; 48 h
  MIC: 3.12 µg/mL (≈ 12.1 µM)
[3]; 48 h
  MIC: 6.25 µg/mL (≈ 24.2 µM)
[3]; 72 h
  MIC: 6.25 µg/mL (≈ 24.2 µM)
[4]; 24 h
  MIC: 3.12 µg/mL (≈ 12.1 µM)
[4]; 48 h
  MIC: 6.25 µg/mL (≈ 24.2 µM)
[5]; 24 h
  MIC: 3.12 µg/mL (≈ 12.1 µM)
[5]; 48 h
  MIC: 3.12 µg/mL (≈ 12.1 µM)
[6]; 60 and 120 mg/kg i.p.
  toxic or adverse effects: No toxic or adverse effects were observed
[7]; 48 h
  MIC: 6.25 µg/mL (≈ 24.2 µM)
[7]; 72 h
  MIC: 12.5 µg/mL (≈ 48.4 µM)
[8]; [11]
  mean difference in volume (MDV): 0.090
  percent increase in paw volume: 6.742%
  percent of control: 47.059%
[8]; [12]
  mean difference in volume (MDV): 0.070
  percent increase in paw volume: 4.956%
  percent of control: 36.601%
[8]; i.p.
  antiinflammatory activity compared with PBZ in words: slightly less activity than PBZ at the 120 mg/kg dose; also recorded: as active at PBZ at 60 mg/kg
  antiinflammatory effect in words: active at both 60 mg/kg and 120 mg/kg

## CCCCC1C(=O)N(c2ccccc2)N(c2ccccc2)C1=O [Phenylbutazone, reference compound]
[1]; [10]
  inhibition at 100 µM: 16%
[1]; Table 8, 2 × 10^-5 M, read-out: inhibition of heat-induced erythrocyte hemolysis
  inhibition at 20 µM: 10%
[1]; Table 9 Test 1 (20% RBC), read-out: percent inhibition of heat-induced erythrocyte hemolysis
  inhibition at 250 µM: 54%
[1]; Table 9 Test 1 (20% RBC), 2.5 × 10^-5 M, read-out: percent inhibition of heat-induced erythrocyte hemolysis
  inhibition at 25 µM: 31%
[1]; Table 9 Test 2 (40% RBC), read-out: percent inhibition of heat-induced erythrocyte hemolysis
  inhibition at 250 µM: 70%
[1]; Table 9 Test 3 (20% RBC), 2.0 × 10^-5 M, read-out: percent inhibition of heat-induced erythrocyte hemolysis
  inhibition at 20 µM: 10%
[1]; Table 9 Test 3 (20% RBC), read-out: percent inhibition of heat-induced erythrocyte hemolysis
  inhibition at 250 µM: 49%
[1]; read-out: percent inhibition of heat-induced erythrocyte hemolysis, Table 9 Test 3 (20% RBC), 1.0 × 10^-4 M
  inhibition at 100 µM: 16%
[1]; 2×10^-5 M, read-out: inhibition of heat-induced red cell hemolysis
  inhibition at 20 µM: 10%
[1]; 10^-4 M, read-out: inhibition of heat-induced red cell hemolysis
  inhibition at 100 µM: 16%
[6]; 240 mg/kg i.p. plus ethyl urethane i.p., listed as PBZ
  deaths: rapid deaths; also recorded: Seven of the eight animals receiving 240 mg/kg of PBZ died before the test could be completed
[8]; Rattus norvegicus, ip, Table 5, 60 mg/kg i.p., * P = 0.01
  inhibition at 60 mg/kg: 52%
[8]; Rattus norvegicus, ip, Table 5, 120 mg/kg i.p., * P = 0.01, read-out: inhibition of carrageenan-induced rat paw edema
  inhibition at 120 mg/kg: 76%
[8]; Table 1, 120 mg/kg i.p.
  percent increase in paw volume: 10.316%
  percent of control: 22.973%
[8]; Table 1, 120 mg/kg i.p., paw volume measured in ml
  mean difference in volume (MDV): 0.106
[8]; Table 3, 120 mg/kg
  group mean difference score: 0.016
[8]; Table 3, 120 mg/kg, ** p 0.01
  difference of mean scores versus vehicle control (Duncan's test): 0.356
[8]; Table 3, PBZ 120 mg/kg versus CBC 240 mg/kg
  difference of mean scores (Duncan's test): 0.102
[8]; Table 3, PBZ 120 mg/kg versus CBC 480 mg/kg, * p 0.05
  difference of mean scores (Duncan's test): 0.149
[8]; [11]
  mean difference in volume (MDV): 0.090
  percent increase in paw volume: 6.742%
  percent of control: 47.059%
[8]; [12]
  mean difference in volume (MDV): 0.046
  percent increase in paw volume: 3.254%
  percent of control: 24.183%
[9]; Rattus norvegicus, po, Table 5, 120 mg/kg oral, fasted rats, N.S., read-out: inhibition of carrageenan-induced rat paw edema
  inhibition at 120 mg/kg: 36%
[9]; Rattus norvegicus, po, read-out: inhibition of carrageenan-induced rat paw edema, Table 5, 60 mg/kg oral, nonfasted rats, * P = 0.01
  inhibition at 60 mg/kg: 37%
[9]; Rattus norvegicus, po, read-out: inhibition of carrageenan-induced rat paw edema, Table 5, 120 mg/kg oral, nonfasted rats
  inhibition at 120 mg/kg: 22%
[9]; [13]
  mean difference in volume (MDV): 0.489
  percent increase in paw volume: 50.257%
  percent of control: 78.200%
[9]; [14]
  mean difference in volume (MDV): 0.392
  percent increase in paw volume: 36.098%
  percent of control: 62.667%
[9]; [15]
  mean difference in volume (MDV): 0.403
  percent increase in paw volume: 31.051%
  percent of control: 64.400%
[9]; oral
  antiinflammatory activity compared with PBZ in words: slightly more effective than CBC at 120 mg/kg in the nonfasted rats
